ChEMBL document CHEMBL4028802, “DILIrank: the largest reference drug list ranked by the risk for developing drug-induced liver injury in humans” (Drug Discov Today, 2016)

How the values were obtained:
Homo sapiens [1] = organism: Homo sapiens; assay: Liver toxicity in human assessed as induction of drug-induced liver injury by measuring severity class index
Homo sapiens [2] = organism: Homo sapiens; assay: Liver toxicity in human assessed as induction of drug-induced liver injury by measuring verified drug-induced liver injury concern status
Throughout, for DILI severity class: key of the grades not given here.

| Compound | DILI_severity_class (Homo sapiens [1]) | DILI_Concern (Homo sapiens [2]) |
| --- | --- | --- |
| O=C(O)CCCCCCNC1c2ccccc2CCc2ccccc21 [AMINEPTINE] | 8 | Most-Dili-Concern |
| Cc1ccnc2c1NC(=O)c1cccnc1N2C1CC1 [NEVIRAPINE] | 8 | Most-Dili-Concern |
| CC(COc1ccccc1)NC(C)C(O)c1ccc(O)cc1 (stereo not drawn) [ISOXSUPRINE] | 0 | No-Dili-Concern |
| CCCCC(F)(F)[C@@]1(O)CC[C@H]2[C@@H](CC(=O)[C@@H]2CCCCCCC(=O)O)O1 [LUBIPROSTONE] | 0 | No-Dili-Concern |
| C[C@H](N[C@@H](CCc1ccccc1)C(=O)O)C(=O)N1CCC[C@H]1C(=O)O [ENALAPRILAT ANHYDROUS] | 7 | Ambiguous-Dili-Concern |
| C=CC(N)CCC(=O)O (stereo not drawn) [VIGABATRIN] | 2 | Ambiguous-Dili-Concern |
| COc1c(C)c2c(c(O)c1C/C=C(\C)CCC(=O)OCCN1CCOCC1)C(=O)OC2 [MYCOPHENOLATE MOFETIL] | 3 | Less-Dili-Concern |
| O=C1Cc2cc(CCN3CCN(c4nsc5ccccc45)CC3)c(Cl)cc2N1 [ZIPRASIDONE] | 3 | Less-Dili-Concern |
| NNCCc1ccccc1 [PHENELZINE] | 3 | Less-Dili-Concern |
| OC[C@@H](O)[C@@H](O)[C@H](O)[C@H](O)CO [MANNITOL] | 0 | No-Dili-Concern |
| Nc1ccn([C@@H]2O[C@H](CO)[C@@H](O)[C@@H]2O)c(=O)n1 [CYTARABINE] | 3 | Most-Dili-Concern |
| O=S(=O)(OC[C@H]1O[C@@H](O[C@]2(COS(=O)(=O)[O][Al]([OH])[OH])O[C@H](OS(=O)(=O)[O][Al]([OH])[OH])[C@@H](OS(=O)(=O)[O][Al]([OH])[OH])[C@@H]2OS(=O)(=O)[O][Al]([OH])[OH])[C@H](OS(=O)(=O)[O][Al]([OH])[OH])[C@@H](OS(=O)(=O)[O][Al]([OH])[OH])[C@@H]1OS(=O)(=O)[O][Al]([OH])[OH])[O][Al]([OH])[OH].[OH][Al]([OH])[OH].[OH][Al]([OH])[OH].[OH][Al]([OH])[OH].[OH][Al]([OH])[OH].[OH][Al]([OH])[OH].[OH][Al]([OH])[OH].[OH][Al]([OH])[OH].[OH][Al]([OH])[OH] | 0 | No-Dili-Concern |
| CCN(CC)CCOc1ccc(C(=C(Cl)c2ccccc2)c2ccccc2)cc1 [CLOMIPHENE] | 3 | Less-Dili-Concern |
| C[C@@H](O)[C@H]1C(=O)N2C(C(=O)O)=C(S[C@@H]3CN[C@H](C(=O)Nc4cccc(C(=O)O)c4)C3)[C@H](C)[C@H]12 | 3 | Ambiguous-Dili-Concern |
| C[C@@H](NCCCc1cccc(C(F)(F)F)c1)c1cccc2ccccc12 | 0 | No-Dili-Concern |
| Cc1nc2n(c(=O)c1CCN1CCC(c3noc4cc(F)ccc34)CC1)CCCC2 [RISPERIDONE] | 3 | Less-Dili-Concern |
| Cc1cccc(C)c1NC(=O)C1CCCCN1C (stereo not drawn) [MEPIVACAINE] | 0 | No-Dili-Concern |
| CCc1cccc2c3c([nH]c12)C(CC)(CC(=O)O)OCC3 (stereo not drawn) [ETODOLAC] | 8 | Most-Dili-Concern |
| CC(O)(P(=O)(O)O)P(=O)(O)O [ETIDRONIC ACID] | 0 | No-Dili-Concern |
| CC(=O)/N=c1/sc(S(N)(=O)=O)nn1C [METHAZOLAMIDE] | 7 | Less-Dili-Concern |

| Compound | DILI_severity_class (Homo sapiens [1]) | DILI_Concern (Homo sapiens [2]) |
| --- | --- | --- |
| CC(C)Nc1ncccn1 [ISAXONINE] | 8 | Most-Dili-Concern |
| Cn1c(CCCC(=O)O)nc2cc(N(CCCl)CCCl)ccc21 [BENDAMUSTINE] | 0 | No-Dili-Concern |
| CC1(C)S[C@@H]2[C@H](NC(=O)COc3ccccc3)C(=O)N2[C@H]1C(=O)O [PENICILLIN V] | 0 | No-Dili-Concern |
| NCCc1ccc(O)cc1 [TYRAMINE] | 0 | No-Dili-Concern |
| C#C[C@]1(O)CC[C@H]2[C@@H]3CCC4=CC(=O)CC[C@@H]4[C@H]3CC[C@@]21CC [LEVONORGESTREL] | 0 | No-Dili-Concern |
| C[C@]12C=CC(=O)N[C@@H]1CC[C@@H]1[C@@H]2CC[C@]2(C)[C@@H](C(=O)Nc3cc(C(F)(F)F)ccc3C(F)(F)F)CC[C@@H]12 [DUTASTERIDE] | 0 | No-Dili-Concern |
| CC(C)(CO)[C@@H](O)C(=O)NCCCO [DEXPANTHENOL] | 0 | No-Dili-Concern |
| O=P(O)(O)C(Sc1ccc(Cl)cc1)P(=O)(O)O [TILUDRONIC ACID] | 0 | No-Dili-Concern |
| COc1ccc(C[C@@H]2c3cc(OC)c(OC)cc3CC[N@+]2(C)CCC(=O)OCCCCCOC(=O)CC[N@@+]2(C)CCc3cc(OC)c(OC)cc3[C@H]2Cc2ccc(OC)c(OC)c2)cc1OC.O=S(=O)([O-])c1ccccc1.O=S(=O)([O-])c1ccccc1 [CISATRACURIUM BESYLATE] | 0 | No-Dili-Concern |
| COc1cc(NCc2ccc3nc(N)nc(N)c3c2C)cc(OC)c1OC [TRIMETREXATE] | 3 | Ambiguous-Dili-Concern |
| CNCCCC1c2ccccc2C=Cc2ccccc21 [PROTRIPTYLINE] | 0 | No-Dili-Concern |
| CN1CCC[C@@H]1Cc1c[nH]c2ccc(CCS(=O)(=O)c3ccccc3)cc12 | 3 | Ambiguous-Dili-Concern |
| C=C1/C(=C\C=C2/CCC[C@]3(C)[C@@H]([C@H](C)CCCC(C)(C)O)CC[C@@H]23)C[C@@H](O)C[C@@H]1O [CALCITRIOL] | 0 | No-Dili-Concern |
| O=C1[C@H](CC[C@H](O)c2ccc(F)cc2)[C@@H](c2ccc(O)cc2)N1c1ccc(F)cc1 [EZETIMIBE] | 3 | Less-Dili-Concern |
| CC1=C(C(=O)O)N2C(=O)[C@@H](NC(=O)[C@H](N)c3ccccc3)[C@H]2SC1 [CEPHALEXIN ANHYDROUS] | 4 | Less-Dili-Concern |
| OCCN1C[C@H](O)[C@@H](O)[C@H](O)[C@H]1CO [MIGLITOL] | 0 | No-Dili-Concern |
| CC(=O)N(O)CCCCCNC(=O)CCC(=O)N(O)CCCCCNC(=O)CCC(=O)N(O)CCCCCN [DEFEROXAMINE] | 0 | Less-Dili-Concern |
| COc1ccc2c(c1)c(CC(=O)O)c(C)n2C(=O)c1ccc(Cl)cc1 [INDOMETHACIN] | 8 | Most-Dili-Concern |
| CC(=O)NCCCS(=O)(=O)O [ACAMPROSATE] | 3 | Less-Dili-Concern |
| C[C@]1(O)CC[C@H]2[C@@H]3CCC4=CC(=O)CC[C@]4(C)[C@@]3(F)[C@@H](O)C[C@@]21C [FLUOXYMESTERONE] | 8 | Ambiguous-Dili-Concern |

| Compound | DILI_severity_class (Homo sapiens [1]) | DILI_Concern (Homo sapiens [2]) |
| --- | --- | --- |
| CC(=O)[C@]1(O)Cc2c(O)c3c(c(O)c2[C@@H](O[C@H]2C[C@H](N)[C@H](O)[C@H](C)O2)C1)C(=O)c1ccccc1C3=O [IDARUBICIN] | 3 | Ambiguous-Dili-Concern |
| CCS(=O)(=O)CCn1c([N+](=O)[O-])cnc1C [TINIDAZOLE] | 3 | Less-Dili-Concern |
| NCCCC(O)(P(=O)(O)O)P(=O)(O)O [ALENDRONIC ACID] | 0 | Less-Dili-Concern |
| Cc1nc(Nc2ncc(C(=O)Nc3c(C)cccc3Cl)s2)cc(N2CCN(CCO)CC2)n1.O [DASATINIB] | 4 | Less-Dili-Concern |
| O=C(O)CN(CCN(CC(=O)O)CC(=O)O)CCN(CC(=O)O)CC(=O)O [PENTETIC ACID] | 0 | No-Dili-Concern |
| DALTEPARIN SODIUM | 3 | Less-Dili-Concern |
| NCCCCCC(=O)O [AMINOCAPROIC ACID] | 0 | No-Dili-Concern |
| NCCc1ccc(O)c(O)c1 [DOPAMINE] | 0 | No-Dili-Concern |
| Cc1ncc(C[n+]2csc(CCO)c2C)c(N)n1 [THIAMINE ION] | 0 | No-Dili-Concern |
| CSc1ccc2c(c1)N(CCC1CCCCN1C)c1ccccc1S2 (stereo not drawn) [THIORIDAZINE] | 5 | Less-Dili-Concern |
| Nc1nc(O)c2ncn(COC(CO)CO)c2n1 [GANCICLOVIR] | 7 | Ambiguous-Dili-Concern |
| OC(Cn1cncn1)(Cn1cncn1)c1ccc(F)cc1F [FLUCONAZOLE] | 8 | Most-Dili-Concern |
| NC12CC3CC(CC(C3)C1)C2 [AMANTADINE] | 3 | Ambiguous-Dili-Concern |
| N=C(N)NC(=O)c1nc(Cl)c(N)nc1N [AMILORIDE] | 3 | Less-Dili-Concern |
| COc1ccc2c3c1O[C@H]1C[C@@H](O)C=C[C@@]31CCN(C)C2 [GALANTAMINE] | 3 | Ambiguous-Dili-Concern |
| COc1cc2nc(N3CCN(C(=O)C4CCCO4)CC3)nc(N)c2cc1OC (stereo not drawn) [TERAZOSIN] | 0 | No-Dili-Concern |
| COc1cccc2c1C(=O)c1c(O)c3c(c(O)c1C2=O)C[C@@](O)(C(=O)CO)C[C@@H]3O[C@H]1C[C@H](N)[C@@H](O)[C@H](C)O1 [EPIRUBICIN] | 3 | Ambiguous-Dili-Concern |
| CN(C)[C@@H]1C(O)=C(C(N)=O)C(=O)[C@@]2(O)C(O)=C3C(=O)c4c(O)cccc4[C@@](C)(O)[C@H]3C[C@@H]12 [TETRACYCLINE] | 2 | Less-Dili-Concern |
| CN(C)CCOC(c1ccccc1)c1ccccc1 [DIPHENHYDRAMINE] | 0 | No-Dili-Concern |
